Reference: US20120322843A1, “GENOTYPE SPECIFIC METHODS FOR TREATING HUMAN SUBJECTS USING 4-METHYLPYRAZOLE” (RAPTOR THERAPEUTICS INC., priority 2009, published 2012)
“And” between values parts separate entries of the source, which are not always exact repeats. Equal entries are not always repeated.

System: human subjects with reduced or absent ALDH2 activity
Assay: Blinded, intra-subject controlled, single dose study of oral 4-MP given before ethanol; serum acetaldehyde measured by HPLC/MS/MS and compared by ALDH2/ADH2 genotype
Type: in vivo
Experimental: A blinded, intra-subject controlled, single dose, dose escalation study of 4-MP for mitigation of acetaldehyde related toxicity in subjects with symptoms of inborn altered ethanol metabolism with concomitant ethanol exposure was undertaken.
Twenty-four subjects (n=24) were randomly selected and orally administered 1 mg/kg, 3 mg/kg, or 5 mg/kg of 4-MP, followed 30 minutes later by an oral dose of 20% ethanol ([…]).
Using the same protocol, wherein 4-MP was replaced with placebo, each of the twenty-four randomly selected subjects served as its own control.
The twenty-four randomly selected subjects were then subjected to blood sampling, and the sampled blood analyzed for acetaldehyde levels at select time points following ethanol consumption.
For acetaldehyde analysis, blood samples were prepared by dilution with an internal standard (acetaldehyde-d4), with derivatization of acetaldehyde with dinitrophenyl hydrazine in hydrochloric acid, liquid-liquid portioning and solvent exchange. The derivatization forms an acetaldehyde-dinitrophenyl hydrazine (DNPH) derivative which dramatically increases the boiling point of the molecule and thus its relative stability compared to the acetaldehyde itself (Nagy et al., Rapid Communications in Mass Spectrometry 2004, 18, 2473-2478). The derivatized analytes were separated using a Jones Chromatography (Grace-Vydac). 50 mm×2.1 mm, 3 μm column held in an oven set at 28° C. Two mobile phases were used in a gradient consisting of 30:70 acetonitrile:water versus 90:10 acetonitrile:water with 0.1% formic acid. The derivatized analyte was detected on a High Performance Liquid Chromatograph equipped with a Mass Spectrometer (HPLC/MS/MS). Quantitation was performed using a linear regression curve fit of impurities standards with 1/× weighting, prepared from dilutions of acetaldehyde in water. Samples and standards were injected at 2 μL.
All […] subjects were then genotyped for ALDH2 and ADH2 at the Alcohol Research Center at Indiana University using (i) genomic DNA isolation and (ii) TaqMan assay for allelic discrimination. • i. Genomic DNA isolation: DNA was first isolated using the “Hot:SHOT” method for isolating PCR quality genomic DNA (Truett et al., Biotechniques 2000, 29(1), 52, 54). Briefly, blood blotted on filter paper (3 mm circle) was placed in the well of a 96-well plate and mixed with 75 μL 25 mM NaOH/0.3 mM EDTA solution and heated to 95° C. for 40 minutes, followed by neutralization with 75 μL 40 mM Tris-HCl ([…]) solution. 1-5 microliters were used for each PCR. • ii. TaqMan Assay for Allelic Discrimination: The allelic discrimination assay used a multiplexed (more than one primer/probe pair per reaction), end-point (data is collected at the end of the PCR process) assay. Each assay mix contained two different TaqMan probes (Applied BioSystems, Foster City, Calif.), labeled with VIC or FAM fluorescent reporter dye, which bound preferentially to one of the alleles. The genotype of each sample was determined by the fluorescence levels of the reporter dyes and was clustered on a graph with other samples of the same genotype. Each reaction contained 5 μL of 2×TaqMan Universal PCR Mastermix, No AmpErase UNG, 3.75 μL of water, 0.25 μL, of 40× Assay Mix, and 1 μL of DNA sample. Eight or eleven controls were included on each 96-well plate: two no template controls, two or three heterozygous samples, and two or three of each of the homozygous samples. Thermocycling was carried out in ND Research PTC-200 thermocyclers. The PCR products were then analyzed in an ABI PRISM® 7300 Sequence Detection System (SOS) instrument. SDS Software 1.3.1 converted the raw data to pure dye components and ploted the results of the allelic discrimination on a scatter plot of Allele X versus Allele Y (e.g. ADH2*1 versus ADH2*2); each genotype appeared on the graph as a cluster of points. […]

[1] = Groups A and D (reduced ALDH2 activity, ADH2*1/ADH2*1 or ADH2*1/ADH2*2), n=6, 1 mg/kg 4-MP oral, then ethanol
[2] = Groups A, B, D, F and G (reduced or absent ALDH2 activity), n=23, 1, 3 or 5 mg/kg 4-MP
[3] = Groups F and G (reduced or absent ALDH2 activity, ADH2*2/ADH2*2), n=6, 1 mg/kg 4-MP oral, then ethanol

Cc1cn[nH]c1 [4-MP, 4-methylpyrazole]
Acetaldehyde AUC0-8H mean [1]: 162 ± 18.7 µg·h/mL and 162 µg·h/mL
Cmax mean (serum acetaldehyde) [1]: 41.3 µg/mL
Peak mean acetaldehyde concentration in the blood (FIG. 2) (Groups A and D, 1 mg/kg 4-MP): can be reduced
Reduction in Cmax mean relative to placebo (Groups A and D, 1 mg/kg 4-MP): approximately 36%
Acetaldehyde AUC0-8H mean [2]: 182 µg·h/mL
Cmax mean (serum acetaldehyde) [2]: 64.2 µg/mL
Peak mean acetaldehyde concentration in the blood (FIG. 3) (Groups F and G (ADH2*2/ADH2*2), 1 mg/kg 4-MP): not reduced
Acetaldehyde AUC0-8H mean [3]: 221 µg·h/mL
Cmax mean (serum acetaldehyde) [3]: 89.2 µg/mL
Peak mean acetaldehyde concentration in the blood (FIG. 4) (all subjects with reduced or absent ALDH2 activity, 1, 3 or 5 mg/kg 4-MP): not reduced
